Assay results: patent publication US10004688B2, “Liposomal mupirocin” (priority 2014, dated 2018)
In brackets after ≈: the same amount, converted by molar mass.

Key:
[1] = Mupirocin solubility in buffers and solubilizer solutions; format: physicochemical
Procedure: Liposomes were prepared using the calcium acetate (CA) gradient method [Clerc S, Barenholz Y. 1995. Loading of amphipathic weak acids into liposomes in response to transmembrane calcium acetate gradients. Biochim Biophys Acta 1240:257-265]. Specifically, lipids in a mole ratio of 55:40:5 HSPC: cholesterol: mPEG DSPE were mechanically hydrated by stirring at 65° C. with 200 mM calcium acetate pH 5.5, at a weight ratio of 1:9. The liposomal dispersion was downsized by stepwise extrusion by the Northern Lipids (Burnaby, BC, Canada) extruder using polycarbonate filters starting with 3 times extrusion through a 400 nm pore size membrane, then 3 times through a 100 nm pore size membrane, and finally 10 times through a 50 nm pore size membrane. Liposomes were then dialyzed using a Cellu Sep regenerated cellulose membrane (Membrane Filtration Products, USA), against a 10% sucrose solution. In the case of HPCD-containing liposomes, lipids were hydrated by 200 mM calcium acetate pH 5.5 containing 15% (w/w) HPCD. Control HPCD liposomes were prepared by hydrating lipids with 15% (w/w) HPCD in phosphate buffer 200 mM pH 6.3. All other preparation steps (downsizing and dialysis) were the same as described above. Remote loading was performed by incubating at 65° C. for 10 min a solution of the drug with the liposome dispersion at a volume ratio of 1:1. Liposomes used for loading were freshly prepared and used within one week. Drug loading solutions were prepared in 200 mM phosphate buffer pH 6.3. High mupirocin concentrations in phosphate buffer pH 6.3 (28 mM) were achieved by vigorous stirring and 10 min sonication in a bath sonicator. Loading was also tested from 1 to 10% (w/w) HPCD solutions in phosphate buffer pH 6.3. High mupirocin concentration (28 mM) in 1% HPCD solution was achieved by vigorous stirring and sonication as described for phosphate buffer. Mupirocin solutions in higher HPCD concentrations (2.5-10%) were prepared by stirring only. Loading was also performed from propylene glycol (PG) and from polyethylene glycol (PEG) 400 solutions. In these cases, a stock solution of 100 mM mupirocin was prepared and diluted to the desired concentration with 200 mM phosphate buffer pH 6.3.
Mupirocin is not freely soluble in aqueous medium. Being a weak acid, its solubility increases with pH. Mupirocin was soluble in phosphate buffer 200 mM pH 6.3 up to a concentration of 15 mM. […] However, high concentrations (≥28 mM) in 1% HPCD required 10 min sonication in order to achieve a clear solution. It should be noted that the chromatographic profile of mupirocin in the different solutions tested was similar to that of a standard solution.

[2] = tested on: Group A streptococcus (GAS); assay: Mice necrotizing fasciitis model; format: in vivo, Female BALB/c mice
Procedure: Necrotizing fasciitis model was performed based on a published method [Hidalgo-grass, C. et al. Mechanisms of disease Effect of a bacterial pheromone peptide on host chemokine degradation in group A streptococcal necrotising soft-tissue infections. 363, (2004)]. Specifically the working protocol included:
Female BALB/c mice, 10 g weight and at the age of 3-4 weeks were selected.
1st Day: Bacteria were seeded on blood-agar plates and incubated at 37° C. THY medium was prepared, autoclaved and kept at room temperature.
2nd Day: plates were taken from the incubator and placed at room temperature.
4th Day: bacteria were transferred from the plates to 5 ml THY tube (warmed in the incubator).
5th Day: 2 ml bacteria were transferred from the 5 ml THY tube to 50 ml THY tube. Bacteria were grown to early logarithmic phase (O.D600=0.3-0.4), washed with PBS and suspended in PBS to O.D600=0.8 which correlates to 10^8 bacteria in injected volume of 100 μl. The obtained bacteria volume was divided to vials according to the number of mice in the study. Each dilution was seeded on blood agar plates and counting colonies on the day after.
On the 5th day, mice hair was removed from the center of mice back and bacteria were injected subcutaneously.
Disease condition was followed according to the Table 2A below.
Specifically, Group A streptococcus (GAS) injection (0.75×10^8 CFU) was administered to all study groups. The drug was administered by IV injection of 100 μl formulation. Eachliposomal mupirocin dose was 45 mg/kg. Each free mupirocin dose was 50 mg/kg.

Neisseria gonorrhoeae = conditions: cited from earlier work
[3] = tested on: gram-positive bacteria, including the methicillin-resistant Staphylococcus aureus (MRSA) and Streptococcus pneumoniae; conditions: gram-positive bacteria incl. MRSA and Streptococcus pneumoniae; cited from earlier work
serum protein = conditions: cited from earlier work
[4] = literature data, free mupirocin; cited from earlier work
[5] = group 2: free drug 50 mg/kg IV 3 h before and 3 and 24 h after GAS injection (150 mg/kg/day), 24 h after challenge
[6] = group 2: free drug 50 mg/kg IV 3 h before and 3 and 24 h after GAS injection (150 mg/kg/day), 48 h after challenge
[7] = group 2: free drug 50 mg/kg IV 3 h before and 3 and 24 h after GAS injection (150 mg/kg/day), 72 h after challenge
[8] = group 2: free drug 50 mg/kg IV 3 h before and 3 and 24 h after GAS injection (150 mg/kg/day), 96 h after challenge

C/C(=C\C(=O)OCCCCCCCCC(=O)O)C[C@@H]1OC[C@H](C[C@@H]2O[C@H]2[C@@H](C)[C@H](C)O)[C@@H](O)[C@H]1O [Mupirocin, 9-[(E)-4-[(2S,3R,4R,5S)-3,4-dihydroxy-5-[[(2S,3S)-3-[(2S,3S)-3-hydroxybutan-2-yl]oxiran-2-yl]methyl]oxan-2-yl]-3-methylbut-2-enoyl]oxynonanoic acid]
solubility ([1]; HPCD solution in phosphate buffer, aqueous with cosolvent or surfactant or cyclodextrin, thermodynamic from solid, HPCD solutions of 1-10% w/w in phosphate buffer pH 6.3): > 34 mM
solubility ([1]; PEG 400, organic solvent or mixture): ~100 mM
solubility ([1]; aqueous buffer, thermodynamic from solid, phosphate buffer 200 mM pH 6.3, without vigorous stirring and sonication): ≤ 15 mM
solubility at 10 min ([1]; aqueous buffer, thermodynamic from solid, phosphate buffer pH 6.3, after vigorous stirring and sonication): ~28 mM (≈ 14 mg/mL)
solubility ([1]; calcium acetate solution, aqueous buffer, calcium acetate 200 mM pH 5.5): < 2000 µg/mL
solubility ([1]; organic solvent or mixture, PG (propylene glycol)): ~100 mM
increase of solubility ([1]; pH 5.5): not more than 10 fold
% weight change ([2]; group 2: free drug 50 mg/kg IV 3 h before and 3 and 24 h after GAS injection (150 mg/kg/day), 24 h after bacteria challenge): −7%
Average mice weight [2, 5]: 12.5 g
Description of mice movement [2, 5]: Regular
Eyes appearance [2, 5]: Open eyes
Hair appearance [2, 5]: Rough hair
Mice mortality [2, 5]: 0
Wound appearance [2, 5]: No wound
Average mice weight [2, 6]: 11.7 g
Description of mice movement [2, 6]: Regular
Eyes appearance [2, 6]: Open eyes
Hair appearance [2, 6]: Rough hair
Mice mortality [2, 6]: 0
Average mice weight [2, 7]: 12.3 g
Description of mice movement [2, 7]: Regular
Eyes appearance [2, 7]: Open eyes
Mice mortality [2, 7]: 0
Average mice weight [2, 8]: 12.7 g
Description of mice movement [2, 8]: Regular
Eyes appearance [2, 8]: Open eyes
Mice mortality [2, 8]: 0
mortality ([2]; mice, GAS s.c. challenge, IV treatment): did not show mortality
development of disease / symptoms ([2]; mice, GAS s.c. challenge, IV treatment, listed as free drug): developed the disease 24 h after bacteria challenge
development of disease / symptoms ([2]; mice, GAS s.c. challenge, IV treatment, listed as free mupirocin): developed the disease symptoms
MIC (Neisseria gonorrhoeae): 0.05 µg/mL (≈ 0.0999 µM)
activity in vitro [3]: active in vitro
protein binding affinity (serum protein): 96.5%
elimination half-life [4]: 20 to 40 min
